Legend:
dogs suffering from DJD = experiment: Treatment of degenerative joint disease in dogs; assay type: in vivo, dog; details: dogs with DJD, 15 mg/Kg/day with food, 6 months; scale of 1 to 10; placebo 2.5±1.3
Description: The therapeutic potential of chondroitin in the treatment of joint disease was evaluated in the dog, an experimental model wherein degenerative or inflammatory orthopaedic problems associated with degenerative joint disease (DJD) are particularly recurrent at both young and geriatric age.
The study was conducted on 90 animals with a mean weight of 30±10 Kg, a mean age of about 8 years, of different breeds, both males and females, all suffering from DJD of the shoulder, hip and/or stifle, randomised into three groups of 30 animals treated with 15 mg/Kg/day of chondroitin (C group), 15 mg/Kg/day of chondroitin sulphate (CS group) or 15 mg/Kg/day of starch (placebo group). The animals received the daily dose with their food. An X-ray and a set of diagnostic tests for DJD were conducted on a preliminary basis on all the animals included in the study. […] The study continued for 6 months; during the treatment, the animals, which were cared for by their owners, were monitored by three veterinary surgeons who independently evaluated the state of the animals. Every month the animals' owners and the three veterinary surgeons filled in a questionnaire, allocating a score on a scale of 1-5 to a set of parameters. Once a month the owners evaluated, on a scale of 1 to 5, the lameness of the animal, its willingness to play, load tolerance, and behaviour indicating pain symptoms. […]

Aggrecan = experiment: Real-Time PCR gene expression in human chondrocytes: aggrecan; assay type: cell-based; details: 1% w/v, ratio to untreated control
Description: To evaluate the biological effects of chondroitin on human chondrocyte cultures, the expression of a set of genes considered key to establishing the phenotype, and suitable markers for evaluating the quality of the tissue generated, was determined. The study was conducted on chondrocytes prepared from human cartilage, as reported in Example 2, the cells being grown in the presence of chondroitin or chondroitin sulphate. Using a standard procedure, 5*10^4 cells per well were seeded in a 24-well multiwell plate. The chondrocytes were grown in DMEM containing 1% w/v of chondroitin or chondroitin sulphate (endotoxin content ≤0.1 EU/mg). The cells were stimulated for 4, 7 and 10 days (Ishak et al., International J. of Pediatric Otorhinolaryngology, 2011, 75: 835-840), after which the RNA was extracted with Trizol Reagent, as described in the kit manual (Life Technologies Ltd, Milan, Italy). A qualitative morphological analysis of the cell culture was also conducted at the various times, in parallel with RNA extraction, by observing the corresponding samples at 4, 7 and 10 days under the optical microscope. The cells seeded at the three different times were observed under the microscope, and the images that best represented the cell growth conditions were acquired using a time-lapse videomicroscopy workstation. After RNA extraction, reverse transcription was performed with a total of 1 μg RNA and then with amplification by Real-Time PCR of genes which are specific markers for chondrocytes (Table 3).
Genes connected with matrix production, such as aggrecan, type I collagen, type II collagen and the Sox9 gene, the expression of which is closely correlated with the expression of type II collagen, were analysed as specific markers for differentiation and characterisation of chondrocytes. (Akiyama H., Mod Rheumatol., 2008, 18(3): 213-9; Yang et al., J. of Orthopaedic Res. 2011).
The gene expression of said markers on human chondrocytes cultured in basic medium (control) and with chondroitin treatment (C) or chondroitin sulphate treatment (CS) was analysed on cell cultures in the second and third growth phases.
The results of the gene expression analysis were reported as the average of at least 3 independent experiments for tests conducted in the presence of C or CS, on cells in phases 2 and 3.

With chondroitin the “average overall score for the regression of the disease” value (dogs suffering from DJD) was 8.5±2.1, the “Fold Expression, Aggrecan” value (Aggrecan; phase II, 4 g) was 0.08 ± 0.02 and the “Fold Expression, Aggrecan” value (Aggrecan; phase II, 7 g) was 1.66±0.22. The “Fold Expression, Aggrecan” value (Aggrecan; phase II, 10 g) was 1.07 ± 0.15, the “Fold Expression, Aggrecan” value (Aggrecan; phase III, 4 g) was 0.16 ± 0.08 and the “Fold Expression, Aggrecan” value (Aggrecan; phase III, 7 g) was 0.79 ± 0.2. The “Fold Expression, Aggrecan” value (Aggrecan; phase III, 10 g) was 2.3 ± 1.0.

“chondroitin sulphate [CS, reference compound]” was tested, and the “average overall score for the regression of the disease” value (dogs suffering from DJD) was 5.3±2.3, the “Fold Expression, Aggrecan” value (Aggrecan; phase II, 4 g) was 1.28 ± 0.75 and the “Fold Expression, Aggrecan” value (Aggrecan; phase II, 7 g) was 0.72 ± 0.27. The “Fold Expression, Aggrecan” value (Aggrecan; phase II, 10 g) was 0.45 ± 0.19, the “Fold Expression, Aggrecan” value (Aggrecan; phase III, 4 g) was 0.17 ± 0.10 and the “Fold Expression, Aggrecan” value (Aggrecan; phase III, 7 g) was 0.87 ± 0.20. The “Fold Expression, Aggrecan” value (Aggrecan; phase III, 10 g) was 0.59 ± 0.13.

From US10206944B2, “Chondroitin for use in medicine” (ALTERGON S.A., priority 2012, dated 2019)
